Test results: US7019026B1, “Modulators of Protein Tyrosine Phosphatases (PTPases)” (Novo Nordisk A/S, priority 1999, dated 2006)
pKi: −log10 of the molar value.

Target: T1, truncated form of PTP1 B (corresponding to the first 321 amino acids) (Homo sapiens, UniProt P18031)
T1 construct: truncated form of PTP1 B (corresponding to the first 321 amino acids); made in house; host or cells: E. coli
T1 sequence (P18031 1-321): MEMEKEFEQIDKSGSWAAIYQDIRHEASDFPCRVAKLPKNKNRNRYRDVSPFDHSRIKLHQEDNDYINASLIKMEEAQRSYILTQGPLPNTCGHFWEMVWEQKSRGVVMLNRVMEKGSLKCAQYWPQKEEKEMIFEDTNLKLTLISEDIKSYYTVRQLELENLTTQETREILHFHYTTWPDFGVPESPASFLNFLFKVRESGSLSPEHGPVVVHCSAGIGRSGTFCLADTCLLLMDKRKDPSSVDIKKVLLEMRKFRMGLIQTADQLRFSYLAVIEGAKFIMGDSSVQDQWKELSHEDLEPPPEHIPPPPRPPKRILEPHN
Experiment: Inhibition of PTP1B (p-nitrophenyl phosphate substrate, enzyme kinetic analysis)
Type: biochemical
Conditions: truncated PTP1B expressed in E. coli; substrate p-nitrophenyl phosphate 0.16 to 10 mM; 50 mM HEPES pH 7.0; 60 minutes; read-out: PTP1B K1 values
Description: The compounds are evaluated for biological activity with a truncated form of PTP1 B (corresponding to the first 321 amino acids), which was expressed in E. coli and purified to apparent homogeneity using published procedures well-known to those skilled in the art. The enzyme reactions are carried out using standard conditions essentially as described by Burke et al. (Biochemistry 35; 15989–15996 (1996)). The assay conditions are as follows. Appropriate concentrations of the compounds of the invention are added to the reaction mixtures containing different concentrations of the substrate, p-nitrophenyl phosphate (range: 0.16 to 10 mM—final assay concentration). The buffer used was 50 mM HEPES pH 7.0, 100 mM sodium chloride, 0.1% (w/v) bovine serum albumin, 5 mM glutathione, and 1 mM EDTA.). The reaction was started by addition of the enzyme and carried out in microtiter plates at […] for 60 minutes. The reactions are stopped by addition of NaOH. The enzyme activity was determined by measurement of the absorbance at 405 nm with appropriate corrections for absorbance at 405 nm of the compounds and p-nitrophenyl phosphate. The data are analyzed using nonlinear regression fit to classical Michaelis Menten enzyme kinetic models. Inhibition is expressed as Ki values in μM.

| pKi | SMILES |
| --- | --- |
| 5.64 | O=C(O)C(=O)Nc1sc2c(c1C(=O)O)CCOC2CN1C(=O)c2ccccc2S1(=O)=O (centres unmarked) [Example 46, 2-(Oxalyl-amino)-7-(1,1,3-trioxo-1,3-dihydro-1H-benzo[d]isothiazol-2-ylmethyl)-4,7-dihydro-5H-thieno[2,3-c]pyran-3-carboxylic acid] |
| 5.82 | O=C(O)C(=O)Nc1sc2c(c1C(=O)O)CC(CN1C(=O)c3cccc(O)c3C1=O)OC2 (centres unmarked) [Example 4, 5-(4-Hydroxy-1,3-dioxo-1,3-dihydro-isoindol-2-ylmethyl)-2-(oxalyl-amino)-4,7-dihydro-5-H-thieno[2,3-c]pyran-3-carboxylic acid] |
| 5.92 | COc1ccc2c(c1)C(=O)N(CC1OCCc3c1sc(NC(=O)C(=O)O)c3C(=O)O)C2=O (centres unmarked) [Example 26, 5-(5-Methoxy-1,3-dioxo-1,3-dihydro-isoindol-2-ylmethyl)-2-(oxalyl-amino)-4,7-dihydro-5H-thieno[2,3-c]pyran-3-carboxylic acid] |
| 5.15 | O=C(O)C(=O)Nc1sc2c(c1C(=O)O)CCOC2CN1C(=O)c2cccc(O)c2C1=O (centres unmarked) [Example 25, 7-(4-Hydroxy-1,3-dioxo-1,3-dihydro-isoindol-2-ylmethyl)-2-(oxalyl-amino)-4,7-dihydro-5H-thieno[2,3-c]pyran-3-carboxylic acid] |
| 5.01 | O=C(O)C(=O)Nc1sc2c(c1C(=O)O)CCOC2CN1C(=O)CSC1=O (centres unmarked) [Example 23, 7-(2,4-Dioxo-Thiazolidin-3-ylmethyl)-2-(oxalyl-amino)-4,7-dihydro-5H-thieno[2,3-c]pyran-3-carboxylic acid] |
| 5.89 | O=C(O)C(=O)Nc1sc2c(c1C(=O)O)CCOC2Cn1c(=O)c2ccccc2[s+]1[O-] (centres unmarked) [Example 55, 7-(1,3-Dioxo-1,3-dihydro-benzo[d]isothiazol-2-ylmethyl)-2-(oxalyl-amino)-4,7-dihydro-5H-thieno[2,3-c]pyran-3-carboxylic acid] |
| 5.85 | O=C(O)C(=O)Nc1sc2c(c1C(=O)O)CCOC2CN1C(=O)C=C(c2ccccc2)S1(=O)=O (centres unmarked) [Example 49, 2-(Oxalyl-amino)-7-(1,1,3-trioxo-5-phenyl-1,3-dihydro-isothiazol-2-ylmethyl)-4,7-dihydro-5H-thieno[2,3-c]pyran-3-carboxylic acid] |
| 5.44 | O=C(O)C(=O)Nc1sc2c(c1C(=O)O)CCOC2CN1C(=O)c2cc3c(cc2C1=O)OCO3 (centres unmarked) [Example 27] |
| 5.09 | O=C(O)C(=O)Nc1sc2c(c1C(=O)O)CCOC2CNC(=O)c1ccc2c(c1)OCO2 (centres unmarked) [Example 28, 7-(((Benzo[1,3]dioxole-5-carbonyl)amino)methyl)-2-(oxalyl-amino)-4,7-dihydro-5H-thieno[2,3-c]pyran-3-carboxylic acid] |
| 5.52 | O=C(O)C(=O)Nc1sc2c(c1C(=O)O)CCOC2COC1=NS(=O)(=O)C(c2ccccc2)=C1 (centres unmarked) [Example 50, 7-(1,1-Dioxo-5-phenyl-1H-isothiazol-3-yloxymethyl)-2-(oxalyl-amino)-4,7-dihydro-5H-thieno[2,3-c]pyran-3-carboxylic acid] |
| 5.82 | O=C(O)C(=O)Nc1sc2c(c1C(=O)O)CCOC2CN1C(=O)S/C(=C\c2c[nH]cn2)C1=O (centres unmarked) [Example 41, 7-(5-(1H-imidazol-4(5)-ylmethylene)-2,4-dioxo-thiazolidin-3-ylmethyl)-2-(oxalyl-amino)-4,7-dihydro-5H-thieno[2,3-c]pyran-3-carboxylic acid] |
| 5.12 | CC(=O)Nc1ccc(/C=C2\SC(=O)N(CC3OCCc4c3sc(NC(=O)C(=O)O)c4C(=O)O)C2=O)cc1 (centres unmarked) [Example 39, 7-(5-(4-Acetylamino-benzylidene)-2,4-dioxo-thiazolidin-3-ylmethyl)-2-(oxalyl-amino)-4,7-dihydro-5H-thieno[2,3-c]pyran-3-carboxylic acid] |
| 6.10 | O=C(O)C(=O)Nc1sc2c(c1C(=O)O)CCOC2COC1=NS(=O)(=O)c2ccccc21 (centres unmarked) [Example 47] |

System: not given
Experiment: not given
Conditions: not given

| melting point [°C] | SMILES |
| --- | --- |
| > 250 | O=C(O)C(=O)Nc1sc2c(c1C(=O)O)CCOC2CN1C(=O)S/C(=C\c2c[nH]cn2)C1=O (centres unmarked) [Example 41, 7-(5-(1H-imidazol-4(5)-ylmethylene)-2,4-dioxo-thiazolidin-3-ylmethyl)-2-(oxalyl-amino)-4,7-dihydro-5H-thieno[2,3-c]pyran-3-carboxylic acid] |
